Measurements: PubChem BioAssay (NCI)
Several values for one entry are separate records, joined by “and”; a condition that tells them apart may be missing. Equal entries are not always repeated.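 Cells were grown in 96-well plates and exposed to each compound for 48 hours at five concentrations; endpoints were interpolated linearly between bracketing concentrations, or set to the highest concentration if not reached. GI50: concentration for 50% inhibition of growth. At the TGI there is no net growth.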

Experiments:
Assay in all cases: inhibition of tumour cell growth, NCI panel, 48 h
[1] = test system: HOP-62 NSCLC
[2] = test system: LXFL 529 NSCLC
[3] = test system: M19-MEL melanoma
[4] = test system: OVCAR-3 ovarian
[5] = test system: OVCAR-4 ovarian
[6] = test system: OVCAR-8 ovarian
[7] = test system: SF-295 CNS
[8] = test system: SK-OV-3 ovarian
[9] = test system: SN12C renal
[10] = test system: SR leukemia

Row | Compound | TGI [1] | TGI [2] | TGI [3] | TGI [4] | TGI [5] | TGI [6] | TGI [7] | TGI [8] | TGI [9] | TGI [10] | GI50 [1] | GI50 [2] | GI50 [3] | GI50 [4] | GI50 [5] | GI50 [6] | GI50 [7] | GI50 [8] | GI50 [9] | GI50 [10]
1 | C=C[Si](C)(C)COC(=O)/C(C#N)=C/C=C/c1ccccc1 | > 100 µM | > 100 µM | > 100 µM | > 100 µM | > 100 µM | > 100 µM | > 100 µM | > 100 µM | > 100 µM | 79.9 µM | – | – | – | – | – | – | – | – | – | –
2 | CN(C)CCC(=O)N1CCc2c([nH]c3ccccc23)C1c1cccnc1 (stereo not drawn) | > 100 µM | > 100 µM | > 100 µM | > 100 µM | > 100 µM | > 100 µM | > 100 µM | > 100 µM | > 100 µM | > 100 µM | – | – | – | – | – | – | – | – | – | –
3 | C[CH2][Ge]([CH2]C)([CH2]C)[O]C(=O)C([O][Ge]([CH2]C)([CH2]C)[CH2]C)c1ccccc1 (stereo not drawn) | 42.8 µM | 44.9 µM | 42.9 µM | 37.3 µM | > 100 µM | 97.9 µM | 41 µM | 31.7 µM | 82.8 µM | 75.4 µM | 19.5 µM | 9.67 µM | 16.9 µM | 16.2 µM | 6.36 µM | 18.2 µM | 14.5 µM | 11.1 µM | 18.2 µM | 14.5 µM
4 | O=C(Nc1ccccc1[N+](=O)[O-])C(=O)C(C(=O)c1ccccc1-c1ccccc1)C1OC(=O)c2ccccc21 (stereo not drawn) | 36 µM | 23 µM | 27.5 µM | 28 µM | > 100 µM | 44.1 µM | 39.3 µM | > 100 µM | 30.3 µM | 49 µM | – | – | – | – | – | – | – | – | – | –
5 | COC1C(O)CC(OC2CC(OC3CC(O[C@@H]4C(=O)c5c(cc6cc(OC7CC(OC8CC(O)C(O)C(C)O8)C(O)C(C)O7)c(C)c(O)c6c5O)C[C@H]4[C@H](OC)C(=O)[C@@H](O)[C@@H](C)O)OC(C)C3O)OC(C)C2O)OC1C (stereo partly drawn) | 3.87 µM | > 100 µM | > 100 µM | 0.101 µM | > 100 µM | > 100 µM | > 20.3 µM | > 100 µM | > 60.5 µM | 0.558 µM | – | – | – | – | – | – | – | – | – | –
6 | COc1cc(/C=C2\NC(=S)C3Cc4c(OC)c(C)c(OC)c(OC)c4C2N3C)c(OC)c(C)c1OC (stereo not drawn) | > 100 µM | > 100 µM | > 100 µM | > 100 µM | > 100 µM | > 100 µM | > 100 µM | > 100 µM | > 100 µM | 55.3 µM | – | – | – | – | – | – | – | – | – | –
7 | CC(=O)OCC1OC(n2c(=S)n(-c3ccccc3)c(=O)c3cc(Br)ccc32)C(OC(C)=O)C(OC(C)=O)C1OC(C)=O (stereo not drawn) | > 100 µM | > 100 µM | > 100 µM | > 100 µM | > 100 µM | > 100 µM | > 100 µM | > 100 µM | > 100 µM | > 100 µM | – | – | – | – | 10.6 µM and > 100 µM | – | 46.5 µM and > 100 µM | – | – | > 100 µM and 12 µM
8 | Cc1cc(Cl)ccc1N1C(=O)C(=O)C(c2nc3ccccc3o2)C(=O)C1=O | > 100 µM | > 100 µM | > 100 µM | > 100 µM | > 100 µM | > 100 µM | > 100 µM | > 100 µM | > 100 µM | > 100 µM | – | – | – | – | – | – | – | – | – | –
